This note sets out measurements from article PMC3737437, “The malQ gene is essential for starch metabolism in Streptococcus mutans” (Journal of Oral Microbiology, 2013).

The experiment addresses T1, GlgP (Streptococcus mutans, UniProt Q8DT31).
T1 construct: gene overlapping malQ by 29 nt, not the second phosphorylase phsG
T1 sequence (Q8DT31 1-758): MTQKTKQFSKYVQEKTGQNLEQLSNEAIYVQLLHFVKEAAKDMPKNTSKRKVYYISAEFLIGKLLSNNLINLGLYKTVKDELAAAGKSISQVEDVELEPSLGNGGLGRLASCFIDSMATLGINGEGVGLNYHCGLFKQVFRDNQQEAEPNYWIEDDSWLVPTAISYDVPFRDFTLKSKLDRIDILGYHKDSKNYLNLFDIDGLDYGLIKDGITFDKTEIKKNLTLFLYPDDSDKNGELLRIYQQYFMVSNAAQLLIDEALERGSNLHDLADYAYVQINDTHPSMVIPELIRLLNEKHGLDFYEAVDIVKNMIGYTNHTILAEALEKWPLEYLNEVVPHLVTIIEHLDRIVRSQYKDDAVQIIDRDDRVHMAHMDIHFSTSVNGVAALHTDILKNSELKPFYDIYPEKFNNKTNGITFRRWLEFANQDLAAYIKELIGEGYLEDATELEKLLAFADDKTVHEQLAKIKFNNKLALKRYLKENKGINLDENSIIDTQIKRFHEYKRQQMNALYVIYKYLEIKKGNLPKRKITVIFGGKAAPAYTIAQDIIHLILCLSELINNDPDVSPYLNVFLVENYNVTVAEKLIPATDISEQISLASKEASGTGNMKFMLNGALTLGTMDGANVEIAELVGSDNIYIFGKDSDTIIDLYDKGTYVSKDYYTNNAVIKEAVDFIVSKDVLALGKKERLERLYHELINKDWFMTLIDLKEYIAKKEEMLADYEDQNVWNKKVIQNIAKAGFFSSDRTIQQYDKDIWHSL
The experiment in a line: phosphorylase assay, phosphoglucomutase / glucose-6-phosphate dehydrogenase-NADP end-point at […] nm. The format is biochemical. Conditions: formed from 1% maltodextrin or 0.8% amylodextrin, 50 mM potassium phosphate pH 7, 0.5 mM MgCl2, 37 °C, 10 min.

Regarding `O=P(O)(O)O[C@H]1O[C@H](CO)[C@@H](O)[C@H](O)[C@H]1O` [glucose-1-phosphate], the “phosphorylase assay, phosphoglucomutase / glucose-6-phosphate dehydrogenase-NADP” value is “generated glucose-1-phosphate from maltodextrin and amylodextrin”.
